Results published in patent US11759462B2, “Spirocyclic compounds as tryptophan hydroxylase inhibitors” (priority 2013, dated 2023).

Molecular target: T1, Recombinant human TPH1 (MBP tagged) (Homo sapiens, UniProt P17752)
T1 construct: cloning full length human TPH1 cDNA in to a bacterial pMAL-c5E expression vector; made in house; host or cells: E. coli BL21 (DE3)
T1 sequence (P17752 1-444): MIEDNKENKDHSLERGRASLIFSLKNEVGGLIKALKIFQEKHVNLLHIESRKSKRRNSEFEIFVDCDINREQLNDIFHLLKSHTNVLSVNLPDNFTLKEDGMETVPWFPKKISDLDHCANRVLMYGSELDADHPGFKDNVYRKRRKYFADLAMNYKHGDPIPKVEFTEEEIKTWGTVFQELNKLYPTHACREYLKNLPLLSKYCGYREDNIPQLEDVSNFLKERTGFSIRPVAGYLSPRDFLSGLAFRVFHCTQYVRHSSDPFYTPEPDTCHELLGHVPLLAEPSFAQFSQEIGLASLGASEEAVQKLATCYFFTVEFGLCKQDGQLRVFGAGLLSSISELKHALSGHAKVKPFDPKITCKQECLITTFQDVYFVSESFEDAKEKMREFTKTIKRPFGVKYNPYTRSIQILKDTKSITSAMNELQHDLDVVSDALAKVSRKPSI
Experiment: TPH1 in vitro inhibition assay (kinetic fluorescence)
Assay type: biochemical
Details: read-out: TPH1 Range (TPH1 inhibition IC50)
In short: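 Final mix: 15 nM MBP-TPH1, 30 μM Trp, 36 μM 6-methyltetrahydropterin, 25 μM ferrous ammonium sulfate, 50 mM MES pH 7.1, 1% DMSO, room temperature.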

| IC50 [µM] | Compound |
| --- | --- |
| 0.05 to 0.3 | CCOC(=O)c1cccc(-c2cc(Cl)ccc2[C@@H](Oc2cc(N3CCC4(CC3)CN[C@H](C(=O)O)C4)nc(N)n2)C(F)(F)F)c1 [Example 35, (S)-8-(2-amino-6-((R)-1-(5-chloro-3′-(ethoxycarbonyl)-[1,1′-biphenyl]-2-yl)-2,2,2-trifluoroethoxy)pyrimidin-4-yl)-2,8-diazaspiro[4.5]decane-3-carboxylic acid] |
| 3 to 10 | COCCOc1cc(Cl)ccc1[C@@H](Oc1cc(N2CCC3(CC2)CN[C@H](C(=O)O)C3)nc(N)n1)C(F)(F)F [Example 36, (S)-8-(2-amino-6-((R)-1-(4-chloro-2-(2-methoxyethoxy)phenyl)-2,2,2-trifluoroethoxy)pyrimidin-4-yl)-2,8-diazaspiro[4.5]decane-3-carboxylic acid] |
| 0.05 to 0.3 | Nc1nc(O[C@H](c2ccc(Cl)cc2-n2cnc3ccccc32)C(F)(F)F)cc(N2CCC3(CC2)CN[C@H](C(=O)O)C3)n1 [Example 36b, (S)-8-(6-((R)-1-(2-(1H-benzo[d]imidazol-1-yl)-4-chlorophenyl)-2,2,2-trifluoroethoxy)-2-aminopyrimidin-4-yl)-2,8-diazaspiro[4.5]decane-3-carboxylic acid] |
| < 0.05 | Nc1nc(O[C@H](c2ccc(Cl)cc2-n2ncc3ccccc32)C(F)(F)F)cc(N2CCC3(CC2)CN[C@H](C(=O)O)C3)n1 [Example 36c, (S)-8-(2-amino-6-((R)-1-(4-chloro-2-(1H-indazol-1-yl)phenyl)-2,2,2-trifluoroethoxy)pyrimidin-4-yl)-2,8-diazaspiro[4.5]decane-3-carboxylic acid] |
| 3 to 10 | Nc1nc(O[C@H](c2ccc(Br)cc2N2CCNCC2)C(F)(F)F)cc(N2CCC3(CC2)CN[C@H](C(=O)O)C3)n1 [Example 36d, (S)-8-(2-amino-6-((R)-1-(4-bromo-2-(piperazin-1-yl)phenyl)-2,2,2-trifluoroethoxy)pyrimidin-4-yl)-2,8-diazaspiro[4.5]decane-3-carboxylic acid] |
| 0.3 to 3 | CC(C)Oc1ccc(-c2ccc([C@@H](Oc3cc(N4CCC5(CC4)CN[C@H](C(=O)O)C5)nc(N)n3)C(F)(F)F)c(N3CCNCC3)c2)cc1 [Example 36e, (S)-8-(2-amino-6-((R)-2,2,2-trifluoro-1-(4′-isopropoxy-3-(piperazin-1-yl)-[1,1′-biphenyl]-4-yl)ethoxy)pyrimidin-4-yl)-2,8-diazaspiro[4.5]decane-3-carboxylic acid] |
| 0.05 to 0.3 | CC(C)Oc1ccc(-c2ccc([C@@H](Oc3cc(N4CCC5(CC4)CN[C@H](C(=O)O)C5)nc(N)n3)C(F)(F)F)c(N3CCOCC3)c2)cc1 [Example 36f, (S)-8-(2-amino-6-((R)-2,2,2-trifluoro-1-(4′-isopropoxy-3-morpholino-[1,1′-biphenyl]-4-yl)ethoxy)pyrimidin-4-yl)-2,8-diazaspiro[4.5]decane-3-carboxylic acid] |
| < 0.05 | Nc1nc(O[C@H](c2ccccc2-c2ccccc2)C(F)(F)F)cc(N2CCC3(CC2)CN[C@H](C(=O)O)C3)n1 [Example 36g, (S)-8-(6-((R)-1-([1,1′-biphenyl]-2-yl)-2,2,2-trifluoroethoxy)-2-aminopyrimidin-4-yl)-2,8-diazaspiro[4.5]decane-3-carboxylic acid] |
| 3 to 10 | CC(Oc1cc(N2CCC3(CC2)CN[C@H](C(=O)O)C3)nc(N)n1)C1C2CC3CC(C2)CC1C3 (stereo partly drawn) [Example 37, (3S)-8-(6-(1-((1r,3r,5S,7S)-adamantan-2-yl)ethoxy)-2-aminopyrimidin-4-yl)-2,8-diazaspiro[4.5]decane-3-carboxylic acid] |
| 0.3 to 3 | Nc1nc(OCC2C3CC4CC(C3)CC2C4)cc(N2CCC3(CC2)CN[C@H](C(=O)O)C3)n1 (stereo partly drawn) [Example 38, (S)-8-(6-((1r,3r,5S,7S)-adamantan-2-ylmethoxy)-2-aminopyrimidin-4-yl)-2,8-diazaspiro[4.5]decane-3-carboxylic acid] |
| 0.3 to 3 | Nc1nc(NCc2ccc3ccccc3c2)nc(N2CCC3(CC2)CNC(C(=O)O)C3)n1 (centres unmarked) [Example 39a, 8-(4-Amino-6-((naphthalen-2-ylmethyl)amino)-1,3,5-triazin-2-yl)-2,8-diazaspiro[4.5]decane-3-carboxylic acid] |
| 3 to 10 | Nc1nc(NCc2ccc(-c3ccccc3)cc2)nc(N2CCC3(CC2)CNC(C(=O)O)C3)n1 (centres unmarked) [Example 39b, 8-(4-(([1,1′-biphenyl]-4-ylmethyl)amino)-6-amino-1,3,5-triazin-2-yl)-2,8-diazaspiro[4.5]decane-3-carboxylic acid] |
| 3 to 10 | Nc1nc(NCc2ccccc2N2CCCCC2)nc(N2CCC3(CC2)CNC(C(=O)O)C3)n1 (centres unmarked) [Example 39c, 8-(4-amino-6-((2-(piperidin-1-yl)benzyl)amino)-1,3,5-triazin-2-yl)-2,8-diazaspiro[4.5]decane-3-carboxylic acid] |
| 3 to 10 | Nc1nc(NCc2cccc(-c3ccccc3)c2)nc(N2CCC3(CC2)CNC(C(=O)O)C3)n1 (centres unmarked) [Example 39d, 8-(4-(([1,1′-biphenyl]-3-ylmethyl)amino)-6-amino-1,3,5-triazin-2-yl)-2,8-diazaspiro[4.5]decane-3-carboxylic acid] |
| 0.3 to 3 | C[C@@H](Nc1nc(N)nc(N2CCC3(CC2)CNC(C(=O)O)C3)n1)c1ccc2ccccc2c1 (stereo partly drawn) [Example 39e, 8-(4-amino-6-(((R)-1-(naphthalen-2-yl)ethyl)amino)-1,3,5-triazin-2-yl)-2,8-diazaspiro[4.5]decane-3-carboxylic acid] |
| 0.3 to 3 | Cc1ccn(-c2cc(Cl)ccc2[C@@H](Oc2nc(N)nc(N3CCC4(CC3)CNC(C(=O)O)C4)n2)C(F)(F)F)n1 (stereo partly drawn) [Example 40, 8-(4-amino-6-((R)-1-(4-chloro-2-(3-methyl-H-pyrazol-1-yl)phenyl)-2,2,2-trifluoroethoxy)-1,3,5-triazin-2-yl)-2,8-diazaspiro[4.5]decane-3-carboxylic acid] |
| 0.3 to 3 | Nc1nc(NCc2ccccc2N2CCCCC2)cc(N2CCC3(CC2)CN[C@H](C(=O)O)C3)n1 [Example 41a, (S)-8-(2-Amino-6-((2-(piperidin-1-yl)benzyl)amino)pyrimidin-4-yl)-2,8-diazaspiro[4.5]decane-3-carboxylic acid] |
| 0.3 to 3 | Nc1nc(NCc2c(Oc3ccccc3)cccc2N2CCCCC2)cc(N2CCC3(CC2)CN[C@H](C(=O)O)C3)n1 [Example 41b, (S)-8-(2-amino-6-((2-phenoxy-6-(piperidin-1-yl)benzyl)amino)pyrimidin-4-yl)-2,8-diazaspiro[4.5]decane-3-carboxylic acid] |
| 3 to 10 | Nc1nc(NCC23CC4CC(CC(C4)C2)C3)cc(N2CCC3(CC2)CN[C@H](C(=O)O)C3)n1 [Example 41c, (3S)-8-(6-(((3S,5S)-adamantan-1-ylmethyl)amino)-2-aminopyrimidin-4-yl)-2,8-diazaspiro[4.5]decane-3-carboxylic acid] |
| 3 to 10 | CC(Nc1cc(N2CCC3(CC2)CN[C@H](C(=O)O)C3)nc(N)n1)C12CC3CC(CC(C3)C1)C2 (stereo partly drawn) [Example 41d, (3S)-8-(6-((1-((1R,3S,5S)-adamantan-1-yl)ethyl)amino)-2-aminopyrimidin-4-yl)-2,8-diazaspiro[4.5]decane-3-carboxylic acid] |
| < 0.05 | Nc1nc(O[C@H](c2ccccc2-c2cccc(Cl)c2)C(F)(F)F)cc(N2CCC3(CC2)CN[C@H](C(=O)O)C3)n1 [Example 42a, (S)-8-(2-amino-6-((R)-1-(3′-chloro-[1,1′-biphenyl]-2-yl)-2,2,2-trifluoroethoxy)pyrimidin-4-yl)-2,8-diazaspiro[4.5]decane-3-carboxylic acid] |
| 0.05 to 0.3 | Nc1nc(O[C@H](c2ccccc2-c2cccc(F)c2)C(F)(F)F)cc(N2CCC3(CC2)CN[C@H](C(=O)O)C3)n1 [Example 42b, (S)-8-(2-amino-6-((R)-2,2,2-trifluoro-1-(3′-fluoro-[1,1′-biphenyl]-2-yl)ethoxy)pyrimidin-4-yl)-2,8-diazaspiro[4.5]decane-3-carboxylic acid] |
| 3 to 10 | Cc1ccn(-c2cc(Cl)ccc2[C@@H](Oc2cnnc(N3CCC4(CC3)CN[C@H](C(=O)O)C4)c2)C(F)(F)F)n1 [Example 43, (S)-8-(5-((R)-1-(4-chloro-2-(3-methyl-H-pyrazol-1-yl)phenyl)-2,2,2-trifluoroethoxy)pyridazin-3-yl)-2,8-diazaspiro[4.5]decane-3-carboxylic acid] |
| 0.3 to 3 | Cc1ccn(-c2ccccc2[C@@H](Oc2ccnc(N3CCC4(CC3)CN[C@H](C(=O)O)C4)c2)C(F)(F)F)n1 [Example 44, (S)-8-(4-((R)-2,2,2-trifluoro-1-(2-(3-methyl-1H-pyrazol-1-yl)phenyl)ethoxy)pyridin-2-yl)-2,8-diazaspiro[4.5]decane-3-carboxylic acid] |
| 0.05 to 0.3 | Cc1ccn(-c2cc(Cl)ccc2[C@@H](Oc2ccnc(N3CCC4(CC3)CN[C@H](C(=O)O)C4)c2)C(F)(F)F)n1 [Example 45, (S)-8-(4-((R)-1-(4-chloro-2-(3-methyl-H-pyrazol-1-yl)phenyl)-2,2,2-trifluoroethoxy)pyridin-2-yl)-2,8-diazaspiro[4.5]decane-3-carboxylic acid] |
| 3 to 10 | Cc1ccn(-c2cc(Cl)ccc2[C@@H](Oc2cc(Oc3ccccc3)nc(N3CCC4(CC3)CNC(C(=O)O)C4)n2)C(F)(F)F)n1 (stereo partly drawn) [Example 46, 8-(4-((R)-1-(4-chloro-2-(3-methyl-H-pyrazol-1-yl)phenyl)-2,2,2-trifluoroethoxy)-6-phenoxypyrimidin-2-yl)-2,8-diazaspiro[4.5]decane-3-carboxylic acid] |
